Consider two substances from patent US10866241B2, “Method for the prognosis and treatment of cancer metastasis” (Fundació Institut de Recerca Biomèdica (IRB Barcelona), priority 2012, dated 2020).

The test system of one test is bone metastasis. Briefly: Prophylactic treatment for bone metastasis in subject with triple negative breast cancer and increased c-MAF. The format is in vivo. To be noted: 120 mg SC once monthly for 6 months, then every 3 months for 4 and a half years, with oral calcium and vitamin D. The protocol:
A tumor tissue sample is obtained from a subject diagnosed as having triple negative breast cancer. The sample is sectioned into thin slices of tissue and embedded in paraffin. Each paraffin section is mounted on a slide. The slides are incubated with anti-MAF antibody. For visualization and detection of antibodies bound to MAF, antibodies conjugated with fluorescent dye are used. The slides are visualized by providing excitation beams to the fluorescent dyes. Images of fluorescent signals are taken by fluorescent microscopes. The relative expression level of c-MAF in the tumor sample is obtained by comparing the fluorescent signal in the tumor sample to that of a reference sample. The intensity in the tumor sample is correlated with the intensity in the reference sample, wherein a higher intensity in the tumor sample compared to the reference sample correlates with an increased risk of the subject having primary breast cancer metastasis to the bone. Alternatively, 16q22-24 locus,16q23 locus or c-MAF gene amplification or translocation determined using an in situ hybridization technique or similar
Based on the prognosis of increased risk of bone metastasis, the subject is administered the anti-RANKL antibody Denosumab as a prophylactic treatment for bone metastasis. 120 mg of Denosumab is administered to the subject subcutaneously (SC) once monthly for 6 months. […]

Test [1] relates to osteoclast differentiation of mouse bone marrow-derived precursor cells. The test can be described thus: Osteoclast differentiation from bone marrow cells with conditioned medium, TRAP technique. The format is cell-based. Particulars: co-incubation with PTHLH antagonist peptide (7-34), 5 μg/ml (FIG. 11c). On the procedure:
b) Assay of osteoclast differentiation from mouse bone marrow-derived precursor cells using conditioned medium originated from MCF7 parental cells or cells over-expressing any of the c-MAF isoforms (short—short isoform and long—long isoform). The number of osteoclasts is measured by means of the TRAP technique (>3 Multinucleated cells).
c) Bone marrow cells treated with 50:50 osteoclast differentiation and conditioned media (CM) parental, c-MAF short and Long-expressing parental cells and BoM2 bone metastatic MCF7 cell derivatives or without CM but with human PTHLH antagonist peptide (7-34)(5 μg/ml), The number of osteoclasts is measured by means of the TRAP technique (Ostoclasts are >3 Multinucleated cells, Highlighted by white arrows) and normalized to control.
Without a direct activity of c-MAF in providing bone metastasis functions to breast cancer cells, c-MAF may instead transcriptionally control the activity of genes promoting homing and bone remodeling capabilities to colonize the bone. PTHLH expression was under the control of c-MAF. An observation confirmed by qPCR analysis (FIG. 11a). Further, patient breast cancer metastasis (GSE14020) growing in the bone retained c-MAF expression compared to metastasis elsewhere (FIG. 11b). Moreover, 77% of metastasis expressing MAF and PTHLH above the average were bone metastasis (FIG. 11b). […]

Test [2] concerns c-MAF expressing MCF7 breast cancer cells. Briefly: Bone metastasis of c-MAF expressing MCF7 cells injected intracardiacally, with or without PTHLH-AN. The format is in vivo, mouse. To be noted: 6 μg twice a day intraperitoneally in PBS, 47 days, vs PBS control (FIG. 11d,e). The protocol: d) Parental, c-MAF short and long-expressing parental cells labeled with the luciferase gene were injected into the left ventricle of mouse and bone colonization was analyzed by in vivo bioluminiscent imaging. The mice injected with c-MAF short and long expressing parental cells were treated or not with PTHLH antagonist peptide (7-34) inoculated intraperitoneally (6 μg/animal) twice a day during the course of the experiment. The plot represents the total photon flux ex vivo at the experiment end point, which reflects the number of metastatic cells per lesion (left panel). Osteolytic bone metastasis lesions are depicted (right panel)
e) X-RAY (CT-scan) images of representative osteolytic lesions per group. […] TRAP positive osteoclast cells (Black) along bone tumor interface from lesions were counted in at least four different fields from each independent mouse and plotted with SD values. […] The statistical differences between groups are evaluated by means of the two-tailed wilcoxon test. […]
To test whether PTHLH mediates c-MAF driven bone metastasis in breast cancer cells, we injected c-MAF expressing MCF7 breast cancer cells intracardiacally and evaluated its capacity to establish and grow bone metastasis in the presence or absence of PTHLH-AN during the span of 47 days. […]

For the substance “Denosumab: fully human monoclonal antibody which binds to RANKL and prevents its activation, CAS number 615258-40-7”, the “evidence of bone metastasis after 5 years” value in the test on bone metastasis was “free of any evidence of bone-metastasis”.

Regarding “PTHLH-AN: human PTHLH antagonist peptide (7-34Aa)”, in test [1], the “induction of osteoclast differentiation in vitro by conditioned media from cells expressing c-MAF” value was “prevented”. For the same substance, in test [2], the “extent of the hind limb osteolytic lesions” value is “dramatic reduction” and the “number of osteoclast (TRAP+ cells) at the metastatic lesion perimeter” value is on record as “reduction in the number of osteoclast”.
